From patent US5106834A, “Linear free-sulfhydryl-containing oligopeptide derivatives as antihypertensive agents” (G. D. Searle & Co., priority 1988, dated 1992) come the findings set out here.

Positions of bridges follow the written chain, without caps; N, C: chain ends. Non-standard residues stand in square brackets, D forms with d. Residues, ends and D or L forms follow the SMILES beside them. No end group written: not given here. Cha = N[C@@H](CC1CCCCC1)C(=O)O; Pen = CC(C)(S)[C@H](N)C(=O)O

The test system of this assay is rabbit aortic rings.

As usually defined, the EC50 is the concentration giving half of the maximal effect.

In the case of `CC[C@H](C)[C@@H]1NC(=O)[C@H](CCCNC(=N)N)NC(=O)[C@H](CC(=O)O)NC(=O)[C@H]([C@@H](C)CC)NC(=O)[C@H](CCCNC(=N)N)NC(=O)CNC(=O)CNC(=O)[C@H](Cc2ccccc2)NC(=O)[C@@H](NC(=O)[C@H](CO)NC(=O)[C@@H](N)CO)CSSC[C@@H](C(=O)N[C@@H](CC(N)=O)C(=O)N[C@@H](CO)C(=O)N[C@@H](Cc2ccccc2)C(=O)N[C@@H](CCCNC(=N)N)C(=O)N[C@@H](Cc2ccc(O)cc2)C(=O)O)NC(=O)CNC(=O)[C@H](CC(C)C)NC(=O)CNC(=O)[C@H](CO)NC(=O)[C@H](CCC(N)=O)NC(=O)[C@H](C)NC(=O)CNC1=O` [ANP-(103-126), ATRIOPEPTIN III] (H-SSCFGGRIDRIGAQSGLGCNSFRY-OH; disulfide 3-19), the 50% effective concentration (EC50) (read-out: EC50 in the rabbit aorta, relaxation of norepinephrine precontracted rings, n = 8) was found to be 2.3 ± 1.6 nM.

In the case of [Pen][Cha]GRIDRIG-NH2 [Peptide No. 6], under “relaxation of norepinephrine (50 nM) precontracted rings, EC50 compared with ANP-(103-126)”, the “Relative Potencies to ANP-(103-126), Rabbit Aorta” value is on record as 0.010.
